# Laboratory results taken from US20210177814A1, “USE OF GUANABENZ OR DERIVATES THEREOF FOR THE TREATMENT OF TYPE I IFN-DEPENDENT PATHOLOGIES” (INSERM (Institut National de la Santé et de la Recherche …, priority 2018, published 2021).
# How the values were obtained:
# [1] = mouse, cited from earlier work
# TLR9 = target: T1, TLR9 (Homo sapiens, UniProt Q9NR96); assay: HEK-Blue hTLR9 SEAP reporter assay; type: cell-based; set-up: expressed in transfected cells; host or cells: HEK-Blue (HEK 293) hTLR9 reporter cells; conditions: 2.5 μM ODN 2006, GBZ 50 μM
# T1 sequence (Q9NR96 26-1032): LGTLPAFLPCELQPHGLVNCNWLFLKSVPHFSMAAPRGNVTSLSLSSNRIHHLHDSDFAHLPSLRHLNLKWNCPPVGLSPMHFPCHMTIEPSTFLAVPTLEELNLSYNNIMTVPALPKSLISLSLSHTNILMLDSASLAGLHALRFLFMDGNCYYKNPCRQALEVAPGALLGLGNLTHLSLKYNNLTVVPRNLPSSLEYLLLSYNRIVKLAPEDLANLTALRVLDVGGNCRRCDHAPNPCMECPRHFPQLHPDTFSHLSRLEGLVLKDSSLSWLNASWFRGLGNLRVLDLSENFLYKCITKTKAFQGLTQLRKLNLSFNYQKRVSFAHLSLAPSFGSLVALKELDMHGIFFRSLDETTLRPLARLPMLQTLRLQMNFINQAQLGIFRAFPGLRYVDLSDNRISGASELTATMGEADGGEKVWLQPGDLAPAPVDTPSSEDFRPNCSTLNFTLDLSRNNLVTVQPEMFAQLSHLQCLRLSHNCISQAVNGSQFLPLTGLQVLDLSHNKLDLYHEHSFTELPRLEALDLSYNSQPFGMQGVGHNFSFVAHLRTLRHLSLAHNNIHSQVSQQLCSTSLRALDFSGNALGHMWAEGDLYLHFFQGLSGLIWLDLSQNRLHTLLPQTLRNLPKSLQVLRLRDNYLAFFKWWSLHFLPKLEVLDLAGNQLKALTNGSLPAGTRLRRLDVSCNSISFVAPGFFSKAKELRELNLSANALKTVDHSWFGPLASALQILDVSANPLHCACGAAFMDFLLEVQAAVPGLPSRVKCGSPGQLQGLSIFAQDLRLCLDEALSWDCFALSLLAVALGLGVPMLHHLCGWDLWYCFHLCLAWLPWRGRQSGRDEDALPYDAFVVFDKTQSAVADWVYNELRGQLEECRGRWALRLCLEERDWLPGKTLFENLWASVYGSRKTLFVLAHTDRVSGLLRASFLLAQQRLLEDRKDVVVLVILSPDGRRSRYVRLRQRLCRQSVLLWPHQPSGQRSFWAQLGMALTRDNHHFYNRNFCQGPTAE
# Description: FIG. 1: Guanabenz inhibits TLR3 and TLR9 activation in mouse Flt3-L DCs and human blood pDCs. A) Sorted bone marrow derived Flt3L-DCs were activated for 6 h with 10 μg/mL poly I:C LMW (TLR3 in DC1) or 1 μM ODN 1585 (TLR9 in pDCs). GBZ was added at 50 μM and inhibited IFN-β and Interleukin-6 (IL-6) production in activated cells. B) hTLR4, hTLR3, hTLR9 and hTLR7 expressed in the reporter HEK-Blue™ cells are inhibited by GBZ. TLR-expressing HEK-Blue™ cells were respectively activated with 100 ng/mL LPS, 10 μg/mL poly I:C LMW, 2.5 μM ODN 2006 or 5 μg/mL imiquimod, respectively. GBZ was added at 50 μM. TLR activity was measured indirectly through SEAP activity as absorbance at 405 nm. […] Protein concentration of IFN-α and TNF-α secreted were measured at the indicated time points or at 16 h. […]
# Given the efficiency of GBZ on mouse TLR3 and TLR9, we turned to human TLRs, in order to extend the relevance of our observations. GBZ-mediated inhibition was first evaluated on NF-kB signaling by monitoring secreted alkaline phosphatase (SEAP) reporter levels in HEK-293 cells expressing TLR3, TLR4, TLR7, TLR9 (FIG. 1B). […] The functionality of the TLR9 transduction pathway was next evaluated by using phospho-flow detection of 40S ribosomal protein S6 (rpS6) phosphorylation, a well characterized early signaling event down-stream of TLR activation by LPS or viruses.
smiles,measurement,setting,value
"NC(N)=N/N=C/c1c(Cl)cccc1Cl [GBZ, 2-(2,6-dichlorobenzylidene)-hydrazinecarboximidamide]",spinal cord accumulation,[1]; several hours after single i.p. bolus 2 mg/kg,approximately 7 μM
same,plasma half-life,[1]; single i.p. bolus 2 mg/kg,1.8 h
same,TLR9-dependent activation of the SEAP reporter,TLR9,inhibited
